{
  "source": "patent US20090123501A1",
  "about": "“INHIBITION OF THE SH2-DOMAIN CONTAINING PROTEIN TYR-PHOSPHATASE, SHP-1, TO ENHANCE VACCINES” (Baylor College of Medicine, priority 2007, published 2009)",
  "key": {"BMDCs [1]": {"tested_on": "BMDCs", "assay": "In vitro transwell DC migration to CCL21", "assay_type": "cell-based, C57BL/6 mice", "settings": "BMDCs transduced 48 hours, 100 ng/mL CCL21, 3 hours transwell", "experimental": "Primary bone marrow-derived dendritic cells (BMDCs) were prepared from wild type mice in the following manner: Bone marrow cells were flushed from the femurs and tibias of C57BL/6 mice and cultured for 6 days in RPMI media supplemented with 10% FBS, 10 ng/mL IL-4 and 10 ng/mL GMCSF along with antibiotics. On day 6, dendritic cells (DCs) were either purified by magnetic bead assisted cell sorting (MACS; Miltenyi Biotec, Auburn, Calif.) prior to adenoviral transduction, or used as unpurified bulk DCs that were then transduced with adenovirus.\nFor DCs to initiate an immune response, they must capture antigen in the periphery and then migrate to the lymph nodes where they stimulate antigen specific T cells. To determine if SHP-1 signaling could affected the ability of DCs to migrate to draining lymph nodes, trafficking studies were performed both in vitro and in vivo. For the in vitro DC migration assays, unpurified bulk BMDCs were transduced with either Ad5-SHP1-shRNA or Ad5-scrambled-shRNA for 48 hours or left untreated. Half of the untreated cells were treated with 1 μg/mL LPS for 24 hours. Cells were collected and washed in serum-free media (SFM) and resuspended at 5×10^6 cells/mL. […] BMDCs migrating into the lower chamber were counted using a hematocytometer."}, "BMDCs [2]": {"tested_on": "BMDCs", "assay": "In vivo DC migration out of the footpad, luciferase IVIS imaging", "parameters": "species or system albino C57BL/6 mice", "settings": "2×10^6 transduced BMDCs injected into footpad", "experimental": "To determine if SHP-1 inhibition enhanced DC migration in vivo, BMDCs were prepared as described above but were transduced with an adenovirus expressing a clickbeetle red-shifted luciferase in addition to either Ad5-SHP-1-shRNA or Ad5-scrambled-shRNA. Transduced cells (2×10^6) were injected into the contralateral footpads of tyrosinase-deficient albino C57BL/6 mice (B6(Cg)-Tyr^c-2J/J, Jackson Laboratory). At the specified intervals mice were injected i.p. with 100 μl of 10 mg/mL luciferin and imaged in vivo using IVIS® (Caliper Life Sciences, Hopkinton, Mass.)."}, "TRAMP C2 tumors": {"tested_on": "TRAMP C2 tumors", "assay": "DC vaccination of mice bearing ectopic TRAMP C2 tumors", "assay_type": "in vivo, C57BL/6 mice", "settings": "by viral transduction, pooled across all peptide treatments, vs untreated mice", "experimental": "BMDCs were prepared as described above, transduced with either Ad5-SHP-1-shRNA or the control Ad5-scrambled-shRNA at 40,000 viral particles/cell, and pulsed with one of the six peptides listed in Table 1 (OVA, an irrelevant epitope to TRAMP 2 tumors, served as a negative control peptide) or a lysate of TRAMP C2 cells as a positive control antigen. 6-8 week C57BL/6 mice, bearing TRAMP C2 tumors (7×10^6 cells injected s.c. on the dorsal flank three days prior to vaccination), were given a single i.p. vaccination with 2×10^6 treated DCs or left untreated. Tumors were measured (length and width using calipers) every 2-4 days until termination of the study and tumor volume was estimated using the formula: Tumor volume (mm3)=x^2y×0.5236, where x is the smaller tumor dimension, and y is the larger tumor dimension. A-G) TRAMP tumor growth curves for vaccines loaded with the indicated peptides. Error bars represent the standard error of the mean of 5 mice vaccinated in each treatment. […] H-I) ANOVA analysis of peptide function and SHP-1 function. Data represent the averages 10 mice per peptide treatment and 5 mice in the no treatment control group for H) and 35 mice per viral transduction treatment and 5 mice in the no treatment control group for I). The green diamonds represent the mean and 95% confidence interval for each group from the ANOVA. The black line is the mean of means for the study and red symbols indicate significant differences (p<0.05 by Tukey-Kramer HSD multiple comparisons test).\nTo determine if there was a significant difference between the various peptides used in these DC vaccinations, mice were pooled across viral treatments (Ad5-SHP-1 shRNA or Ad5-scrambled-shRNA) employing the same peptide. An ANOVA for differences in mean tumor volume at day 48 post-vaccination (the time at which the majority of the vaccinated tumor growth curves change slope) and Tukey-Kramer HSD multiple comparisons test.\nNext experiments were conducted to determine if vaccines transduced with Ad5-SHP-1-shRNA inhibited tumor growth compared to transduction with Ad5-scrambled-shRNA or no vaccine treatment, irrespective of what peptide was used in the vaccine."}},
  "data": [
    {"sequence": "CACCGGAGCATGACACAGCAGAATACGAATATTCTGCTGTGTCATGCTCC (chemistry not given here) [Ad5-SHP-1-shRNA]", "values": [
      {"measurement": "migration index (migration to CCL21 relative to migration without CCL21)", "setting": "BMDCs [1]", "result": "not significantly different from that of untreated cells"},
      {"measurement": "DCs in the footpad at 24 hours post-injection", "setting": "BMDCs [2]", "result": "undetectable in the footpad by 24 hours post injection"},
      {"measurement": "time by which DCs are seen to migrate out of the footpad", "setting": "BMDCs [2]; post-injection", "result": "≤ 2", "unit": "h"},
      {"measurement": "TRAMP C2 tumor volume (ANOVA)", "setting": "TRAMP C2 tumors", "result": "significantly lower tumor volumes"}
    ]}
  ]
}
